“And” between values parts separate entries of the source, which are not always exact repeats. Equal entries are not always repeated. “Also recorded” adds a separate entry of the source.
Key:
Sirt5 [1] = target: T1, Sirt5 (Homo sapiens, UniProt Q9NXA8); test: Coupled enzymatic desuccinylation assay, Sirt5 with CPS1-succK537 peptide; assay type: biochemical; conditions: for Effect on Sirt5 activity (in words): coupled assay, 10 and 100 μM compound
T1 sequence (Q9NXA8 34-302): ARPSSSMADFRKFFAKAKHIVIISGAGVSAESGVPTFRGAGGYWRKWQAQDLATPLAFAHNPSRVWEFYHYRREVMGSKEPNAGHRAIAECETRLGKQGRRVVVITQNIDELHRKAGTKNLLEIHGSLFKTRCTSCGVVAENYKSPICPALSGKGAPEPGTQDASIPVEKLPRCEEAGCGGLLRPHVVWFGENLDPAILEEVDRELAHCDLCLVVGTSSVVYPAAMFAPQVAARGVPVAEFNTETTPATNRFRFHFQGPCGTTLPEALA

Sirt2 = target: T2, Sirt2 (Homo sapiens, UniProt Q8IXJ6); test: Coupled enzymatic deacetylation assay, Sirt2 with α-tubulin-acK25 peptide; assay type: biochemical; conditions: for Sirt2 activation (α-tubulin-acK25 deacetylation): 100 μM compound; for Effect on Sirt2 activity (in words): coupled assay, 10 and 100 μM compound
T2 sequence (Q8IXJ6 43-356): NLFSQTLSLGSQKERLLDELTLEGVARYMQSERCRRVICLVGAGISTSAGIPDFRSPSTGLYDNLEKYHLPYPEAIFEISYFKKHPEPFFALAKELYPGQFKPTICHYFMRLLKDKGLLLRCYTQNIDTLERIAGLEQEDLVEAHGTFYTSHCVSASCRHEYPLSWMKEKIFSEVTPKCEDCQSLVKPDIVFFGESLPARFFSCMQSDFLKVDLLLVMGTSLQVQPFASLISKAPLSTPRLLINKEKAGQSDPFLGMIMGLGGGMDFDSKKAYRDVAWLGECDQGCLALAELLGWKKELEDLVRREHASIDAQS

Sirt3 [2] = target: T3, Sirt3 (Homo sapiens, UniProt Q9NTG7); test: Coupled enzymatic deacetylation assay, Sirt3 with ACS2-acK642 peptide; assay type: biochemical; conditions: for Effect on Sirt3 activity (in words): coupled assay, ACS2 peptide, 10 and 100 μM compound
T3 sequence (Q9NTG7 114-380): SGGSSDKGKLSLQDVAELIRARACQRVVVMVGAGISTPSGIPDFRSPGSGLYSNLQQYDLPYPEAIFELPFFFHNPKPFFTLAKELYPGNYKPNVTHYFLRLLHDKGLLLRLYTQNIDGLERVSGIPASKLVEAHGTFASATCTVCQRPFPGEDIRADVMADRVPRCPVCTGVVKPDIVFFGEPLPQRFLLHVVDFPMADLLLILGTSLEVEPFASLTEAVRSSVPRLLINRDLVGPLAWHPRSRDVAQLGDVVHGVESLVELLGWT

[3] = test system: mouse embryonic fibroblasts (MEFs); test: Mitochondrial mass by FACS; assay type: cell-based; conditions: 25 μM, 24 h
GDH acetylation = test: GDH immunoprecipitation and Lys acetylation Western blot, MDA-MB-231 cells; assay type: cell-based, human; conditions: 50 μM
Sirt3 [4] = target: T4, Sirt3 (Homo sapiens, UniProt Q9NTG7); test: Cellular SIRT3 deacetylase activity assay; assay type: cell-based; conditions: MDA-MB-231 cells, 50 and 100 μM, 3 h
T4 sequence (Q9NTG7 1-399): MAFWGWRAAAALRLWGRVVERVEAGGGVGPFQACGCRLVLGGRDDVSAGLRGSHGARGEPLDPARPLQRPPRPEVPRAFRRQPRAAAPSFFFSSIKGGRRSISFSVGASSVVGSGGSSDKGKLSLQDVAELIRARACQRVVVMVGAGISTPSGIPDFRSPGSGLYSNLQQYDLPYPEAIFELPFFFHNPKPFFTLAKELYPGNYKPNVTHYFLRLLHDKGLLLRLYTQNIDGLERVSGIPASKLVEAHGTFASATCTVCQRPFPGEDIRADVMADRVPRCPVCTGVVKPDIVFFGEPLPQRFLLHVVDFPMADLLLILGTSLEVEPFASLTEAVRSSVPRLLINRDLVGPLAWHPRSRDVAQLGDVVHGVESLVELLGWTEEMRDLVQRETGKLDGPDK

MnSOD-Lys68 acetylation = MnSOD-Lys68 acetylation Western blot in MDA-MB-231 cells; assay type: cell-based, human
Sirt5 [5] = target: T5, Sirt5 (Homo sapiens, UniProt Q9NXA8); test: PDC deacylation assay: PDHA1 desuccinylation by recombinant Sirt5; assay type: biochemical; conditions: 100 μM compound, PDHA1 from porcine heart tissue
T5 sequence (Q9NXA8 37-310): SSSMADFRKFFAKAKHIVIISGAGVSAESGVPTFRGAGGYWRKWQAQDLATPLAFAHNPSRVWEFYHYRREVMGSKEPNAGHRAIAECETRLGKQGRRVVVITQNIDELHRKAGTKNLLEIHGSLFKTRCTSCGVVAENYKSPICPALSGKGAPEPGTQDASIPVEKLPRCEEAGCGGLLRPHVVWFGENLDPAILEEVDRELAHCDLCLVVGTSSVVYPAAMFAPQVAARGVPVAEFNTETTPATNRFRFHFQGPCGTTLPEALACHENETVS

GDH = GDH activity assay in MDA-MB-231 cell lysates; assay type: cell-based, human; conditions: wild-type MDA-MB-231 cells, 50 μM, 4 or 24 h
MDA-MB-231 cells = test: Ammonia level assay, MDA-MB-231 cells; assay type: cell-based, human; conditions: 50 μM, 4 and 24 h
glutaminase (GLS) = test: GLS activity assay in MDA-MB-231 cell lysates; assay type: cell-based, human; conditions: MDA-MB-231 cells, 50 μM, 4 and 24 h
Sirt5 [6] = target: T5, Sirt5; conditions: cited from earlier work
GOT1 acetylation = GOT1 acetylation Western blot in pancreatic cancer cell lines; assay type: cell-based

Compound: CCOC(=O)C1=CN(Cc2ccccc2)C=C(C(=O)OCC)C1c1ccc(-c2ccccc2)cc1 [Compound 2]
- Effect on Sirt5 activity (in words) (Sirt5 [1]): Sirt5 activation

Compound: CCOC(=O)C1=CN(Cc2ccccc2)C=C(C(=O)OCC)C1c1cccc2ccccc12 [Compound 3]
- Effect on Sirt5 activity (in words) (Sirt5 [1]): Sirt5 activation

Compound: CCOC(=O)C1=CN(Cc2ccccc2)C=C(C(=O)OCC)C1c1ccc2ccccc2c1 [Compound 4]
- Sirt5 activation (CPS1-succK537 desuccinylation) (Sirt5 [1]; 10 μM compound): 1.2- to 1.5 fold
- Effect on Sirt5 activity (in words) (Sirt5 [1]): Sirt5 activation

Compound: CCOC(=O)C1=CN(Cc2ccccc2)C=C(C(=O)OCC)C1c1ccco1 [Compound 5]
- Sirt2 activation (α-tubulin-acK25 deacetylation) (Sirt2): less than 1.5 fold
- Effect on Sirt2 activity (in words) (Sirt2): weak Sirt2 activation

Compound: CCOC(=O)C1=CN(Cc2ccccc2)C=C(C(=O)OCC)C1c1nccs1 [Compound 7]
- Effect on Sirt3 activity (in words) (Sirt3 [2]): Sirt3 activation; also recorded: comparable to the parent compound

Compound: CCOC(=O)C1=CN(Cc2ccccc2)C=C(C(=O)OCC)C1c1cc2ccccc2s1 [Compound 9]
- Sirt5 activation (CPS1-succK537 desuccinylation) (Sirt5 [1]; 100 μM compound): 2- to 3 fold
- Effect on Sirt5 activity (in words) (Sirt5 [1]): Sirt5 activation

Compound: CCOC(=O)C1=CN(Cc2ccccc2)C=C(C(=O)OCC)C1c1cnc2ccccc2c1 [Compound 10]
- Effect on Sirt3 activity (in words) (Sirt3 [2]): Sirt3 activation; also recorded: comparable to the parent compound
- Effect on mitochondrial mass ([3]; Sirt3 knock-out MEFs): no significant compound effect
- Increase of mitochondrial mass ([3]; wild-type MEFs): about 2.5 fold

Compound: CCOC(=O)C1=CN(C(=O)c2ccccc2)C=C(C(=O)OCC)C1c1ccccc1 [Compound 11]
- EC50 (Sirt3 [2]): 100 to 200 µM
- Sirt3 activity (Sirt3 [2]; 100 μM compound): over 300%
- GDH overall Lys acetylation (GDH acetylation): decreased acetylation levels
- FdL deacetylation (Sirt3) activity in cell lysates (Sirt3 [4]): significant increase in FdL deacetylation activity
- MnSOD-Lys68 acetylation (MnSOD-Lys68 acetylation; MDA-MB-231 cells, 50 μM): decrease in MnSOD-Lys68 acetylation
- MnSOD-Lys68 acetylation (MnSOD-Lys68 acetylation; Sirt3 silenced MDA-MB-231 cells, 16 h): did not decrease MnSOD-Lys68 acetylation

Compound: CCOC(=O)C1=CN(C(=O)c2ccccc2)C=C(C(=O)OCC)C1c1cccc(Cl)c1 [Compound 13]
- Sirt5-dependent desuccinylation of PDHA1 (Sirt5 [5]): clearly enhanced
- Sirt5 activation (CPS1-succK537 desuccinylation) (Sirt5 [1]; 10 μM compound): 1.2- to 1.5 fold

Compound: CCOC(=O)C1=CN(C(=O)c2ccccc2)C=C(C(=O)OCC)C1c1ccc(Cl)cc1 [Compound 14]
- Sirt5 activation (CPS1-succK537 desuccinylation) (Sirt5 [1]; 10 μM compound): 1.2- to 1.5 fold

Compound: CCOC(=O)C1=CN(C(=O)c2ccccc2)C=C(C(=O)OCC)C1c1cccc(C)c1 [Compound 16]
- GDH activity in cell lysates (GDH): no significant changes in GDH activity
- Ammonia accumulation (MDA-MB-231 cells): no such effects
- GLS activity in cell lysates (glutaminase (GLS)): no such effects

Compound: CCOC(=O)C1=CN(C(=O)c2ccccc2)C=C(C(=O)OCC)C1c1ccc(C)cc1 [Compound 17]
- Effect on Sirt5 activity (in words) (Sirt5 [1]): specific Sirt5 activation

Compound: CCOC(=O)C1=CN(C(=O)c2ccccc2)C=C(C(=O)OCC)C1c1ccccc1OC [Compound 18]
- Effect on Sirt5 activity (in words) (Sirt5 [1]): specific Sirt5 activation

Compound: CCOC(=O)C1=CN(C(=O)c2ccccc2)C=C(C(=O)OCC)C1c1cccc(OC)c1 [Compound 19]
- GDH activity in cell lysates (GDH): decreased GDH activity
- In vitro Sirt5 deacetylase activity (Sirt5 [6]): increase in vitro Sirt5 deacetylase activity
- Ammonia accumulation (MDA-MB-231 cells): blocked ammonia accumulation
- GLS activity in cell lysates (glutaminase (GLS)): decreased GLS activity
- GOT1 acetylation (GOT1 acetylation; S2–013 and Capan1 cell lines, 20 μM, 24 h): decrease GOT1 acetylation
- Effect on GOT1 acetylation (GOT1 acetylation; SIRT5 knockout KPC and KPCS cell lines): negligible
- Sirt5 activation (CPS1-succK537 desuccinylation) (Sirt5 [1]; 10 μM compound): 1.2- to 1.5 fold
- Effect on Sirt5 activity (in words) (Sirt5 [1]): specific Sirt5 activation

Compound: CCOC(=O)C1=CN(C(=O)c2ccccc2)C=C(C(=O)OCC)C1c1ccc(OC)cc1 [Compound 20]
- Sirt5 activation (CPS1-succK537 desuccinylation) (Sirt5 [1]; 10 μM compound): 1.2- to 1.5 fold

Compound: CCOC(=O)C1=CN(C(=O)c2cccc3ccccc23)C=C(C(=O)OCC)C1c1ccccc1 [Compound 21]
- Sirt5 activation (CPS1-succK537 desuccinylation) (Sirt5 [1]; 100 μM compound): 2- to 3 fold
- Effect on Sirt5 activity (in words) (Sirt5 [1]): specific Sirt5 activation

Compound: CCOC(=O)C1=CN(C(=O)c2ccc3ccccc3c2)C=C(C(=O)OCC)C1c1ccccc1 [Compound 22]
- Effect on Sirt3 activity (in words) (Sirt3 [2]): comparable to the parent compound
- Sirt2 activation (α-tubulin-acK25 deacetylation) (Sirt2): less than 1.5 fold

Compound: CCOC(=O)C1=CN(C(=O)c2cnccn2)C=C(C(=O)OCC)C1c1ccccc1 [Compound 23]
- Sirt5 activation (CPS1-succK537 desuccinylation) (Sirt5 [1]; 10 μM compound): 1.2- to 1.5 fold
- Sirt5 activation (CPS1-succK537 desuccinylation) (Sirt5 [1]; 100 μM compound): 2- to 3 fold
- Effect on Sirt5 activity (in words) (Sirt5 [1]): specific Sirt5 activation

Compound: CCOC(=O)C1=CN(C(=O)c2cnc3ccccc3n2)C=C(C(=O)OCC)C1c1ccccc1 [Compound 24]
- Effect on Sirt3 activity (in words) (Sirt3 [2]): comparable to the parent compound
- Sirt5 activation (CPS1-succK537 desuccinylation) (Sirt5 [1]; 10 μM compound): 1.2- to 1.5 fold
- Sirt5 activation (CPS1-succK537 desuccinylation) (Sirt5 [1]; 100 μM compound): 2- to 3 fold and 2.5 fold

Compound: CCOC(=O)C1=CN(Cc2cc(OC)c(OC)c(OC)c2)C=C(C(=O)OCC)C1c1ccccc1 [Compound 25, Diethyl 4-Phenyl-1-(3,4,5-trimethoxybenzyl)-1,4-dihydropyridine-3,5-dicarboxylate]
- Effect on Sirt3 activity (in words) (Sirt3 [2]): lost their effects towards Sirt3

Compound: CCOC(=O)C1=CN(Cc2cc(OC)c(OC)c(OC)c2)C=C(C(=O)OCC)C1c1cnc2ccccc2c1 [Compound 26, Diethyl 4-(Quinolin-3-yl)-1-(3,4,5-trimethoxybenzyl)-1,4-dihydropyridine-3,5-dicarboxylate]
- Effect on Sirt3 activity (in words) (Sirt3 [2]): lost their effects towards Sirt3

Compound: CCOC(=O)C1=CN(C(=O)c2ccccc2)C=C(C(=O)OCC)C1c1ccco1 [Compound 27, Diethyl 1-Benzoyl-4-(furan-2-yl)-1,4-dihydropyridine-3,5-dicarboxylate]
- Sirt5 activation (CPS1-succK537 desuccinylation) (Sirt5 [1]; 100 μM compound): about 2 fold

Compound: CCOC(=O)C1=CN(C(=O)c2ccccc2)C=C(C(=O)OCC)C1c1ccoc1 [Compound 28, Diethyl 1-Benzoyl-4-(furan-3-yl)-1,4-dihydropyridine-3,5-dicarboxylate]
- Sirt5 activation (CPS1-succK537 desuccinylation) (Sirt5 [1]; 100 μM compound): 3- to 3.5 fold

Compound: CCOC(=O)C1=CN(C(=O)c2cc(OC)c(OC)c(OC)c2)C=C(C(=O)OCC)C1c1cccc(N)c1 [Compound 38, Diethyl 4-(3-Aminophenyl)-1-(3,4,5-trimethoxybenzoyl)-1,4-dihydropyridine-3,5-dicarboxylate]
- Sirt2 activation (α-tubulin-acK25 deacetylation) (Sirt2): 2 fold
- Sirt5 activation (CPS1-succK537 desuccinylation) (Sirt5 [1]; 100 μM compound): 3- to 3.5 fold and 3.5 fold

Compound: CCOC(=O)C1=CN(C(=O)c2cc(OC)c(OC)c(OC)c2)C=C(C(=O)OCC)C1c1ccco1 [Compound 40, Diethyl 4-(Furan-2-yl)-1-(3,4,5-trimethoxybenzoyl)-1,4-dihydropyridine-3,5-dicarboxylate]
- Effect on Sirt2 activity (in words) (Sirt2): smaller effects

Compound: CCOC(=O)C1=CN(C(=O)c2cc(OC)c(OC)c(OC)c2)C=C(C(=O)OCC)C1c1ccoc1 [Compound 41, Diethyl 4-(Furan-3-yl)-1-(3,4,5-trimethoxybenzoyl)-1,4-dihydropyridine-3,5-dicarboxylate]
- Effect on Sirt2 activity (in words) (Sirt2): smaller effects

From publication PMC9653166 (Journal of medicinal chemistry, 2022)
